Patent publication US11078245B2, “Colon and pancreas cancer peptidomimetics” (PRECISION BIOLOGICS, INC., priority 2010, dated 2021)
Entries after “also recorded” stand apart in the source; their conditions may differ. Ends that are not written are not given here.

How the values were obtained:
NPC-1C antigen = experiment: 4-1-4C12-KLH competitive ELISA; assay type: binding
Experimental: (§1) An exemplary NPC-1 antigen peptidomimetic, 4-1-4C12 (SEQ ID NO: 5) was conjugated to KLH (Keyhole Limpit Hemocyannin) (“4-1-4-C12-KLH”). […] Further, 4-1-4C12-KLH blocks NPC-1 binding to NPC-1C antigen specifically in competitive ELISA. After confirming the function of 4-1-4C12-KLH, 4-1-4C12-KLH was injected into rabbits. The immunized serum after third injection was tested by binding ELISA to check the function of 4-1-4C12-KLH induced antibody. The plate was coated with 4-1-4C12 peptide or CFPAC1 sup, diluted serum was added to the washed and blocked the plate. Bound rabbit IgG was detected by donkey anti-rabbit IgG-HRP.

NEO-101 antibody = experiment: 4-1-4-C12-KLH binding ELISA
4-1-4C12 peptide = experiment: Rabbit immunization, serum binding ELISA; assay type: in vivo, rabbits; details: rabbit serum after third injection
Experimental: as §1

CFPAC1 sup = molecular target: T1, CFPAC1 sup (Homo sapiens, UniProt P98088); experiment: Rabbit immunization, serum binding ELISA; assay type: in vivo, rabbits; details: rabbit serum after third injection
T1 construct: endogenous in cells; host or cells: CFPAC-1 (human pancreatic tumor cell line); cells or serum-free conditioned medium
Experimental: as §1

Substance: 4-1-4-C12-KLH: 4-1-4C12 (SEQ ID NO: 5) conjugated to KLH (Keyhole Limpit Hemocyannin) (SLPDDWFRYINY; also: conjugated to KLH (keyhole limpet hemocyanin))
- blocking of NPC-1 binding to NPC-1C antigen (NPC-1C antigen): blocks
- binding to NEO-101 antibody (NEO-101 antibody): binds to NEO-101 antibody
- immunized serum binding to 4-1-4C12 peptide (4-1-4C12 peptide): binds to 4-1-4C12; also recorded: dose dependent manner
- immunized serum binding to CFPAC1 supernatant (CFPAC1 sup): bind to CFPAC1 human pancreatic cell line supernatant; also recorded: dose dependent manner
